Measured values as given in ChEMBL document CHEMBL1201862, “PubChem BioAssay data set” (2004).
Active and inactive are the calls of the source.

Experiments:
INS1 = assay: INS-1E survival protection against cytokine death – cell-based, luminescence, retest, dose response (AID 449756); assay type: functional; conditions: Rattus norvegicus;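 note: cell death triggered by IL-1 beta plus TNF-alpha plus IFN-gamma mixture; protective hits raise ATP signal compared with cytokine alone wells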
[1] = biological target: T1, Replicative DNA helicase DnaB (Mycobacterium tuberculosis, UniProt P9WMR3); assay: DnaB intein splicing inhibitors, dose response, biochemical, cell-free fluorescence (AID 449749); assay type: functional
T1 sequence (P9WMR3 whole entry): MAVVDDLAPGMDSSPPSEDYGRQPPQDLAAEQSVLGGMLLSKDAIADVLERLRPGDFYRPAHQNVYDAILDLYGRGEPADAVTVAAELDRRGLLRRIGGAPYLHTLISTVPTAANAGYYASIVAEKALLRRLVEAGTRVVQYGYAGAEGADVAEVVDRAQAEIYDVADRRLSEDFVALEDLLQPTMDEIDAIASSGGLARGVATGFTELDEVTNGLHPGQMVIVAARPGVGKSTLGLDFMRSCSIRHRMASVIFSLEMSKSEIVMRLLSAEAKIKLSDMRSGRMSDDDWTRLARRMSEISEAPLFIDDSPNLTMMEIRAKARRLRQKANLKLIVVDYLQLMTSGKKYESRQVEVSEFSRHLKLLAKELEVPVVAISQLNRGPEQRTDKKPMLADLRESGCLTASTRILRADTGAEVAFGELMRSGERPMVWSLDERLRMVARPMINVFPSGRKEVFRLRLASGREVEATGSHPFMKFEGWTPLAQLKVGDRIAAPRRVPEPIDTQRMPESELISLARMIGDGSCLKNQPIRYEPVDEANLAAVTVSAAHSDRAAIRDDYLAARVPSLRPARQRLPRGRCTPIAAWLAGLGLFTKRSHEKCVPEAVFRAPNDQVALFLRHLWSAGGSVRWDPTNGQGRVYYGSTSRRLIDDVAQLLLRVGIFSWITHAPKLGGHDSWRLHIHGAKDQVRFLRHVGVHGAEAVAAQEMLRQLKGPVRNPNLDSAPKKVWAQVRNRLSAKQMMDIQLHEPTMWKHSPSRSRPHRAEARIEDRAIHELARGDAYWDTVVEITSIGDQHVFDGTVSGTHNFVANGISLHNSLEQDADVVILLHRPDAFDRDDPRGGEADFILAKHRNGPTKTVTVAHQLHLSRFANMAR

Protein RecA = biological target: T2, Protein RecA (Mycobacterium tuberculosis, UniProt P9WHJ3); assay: Fluorescence Cell-Free Homogeneous Dose Retest to Identify Inhibitors of RecA-Intein Splicing Activity. [Related pubchem assays (depositor defined):AID2097, AID2223, AID489010, AID492950]; assay type: functional
T2 sequence (P9WHJ3 whole entry): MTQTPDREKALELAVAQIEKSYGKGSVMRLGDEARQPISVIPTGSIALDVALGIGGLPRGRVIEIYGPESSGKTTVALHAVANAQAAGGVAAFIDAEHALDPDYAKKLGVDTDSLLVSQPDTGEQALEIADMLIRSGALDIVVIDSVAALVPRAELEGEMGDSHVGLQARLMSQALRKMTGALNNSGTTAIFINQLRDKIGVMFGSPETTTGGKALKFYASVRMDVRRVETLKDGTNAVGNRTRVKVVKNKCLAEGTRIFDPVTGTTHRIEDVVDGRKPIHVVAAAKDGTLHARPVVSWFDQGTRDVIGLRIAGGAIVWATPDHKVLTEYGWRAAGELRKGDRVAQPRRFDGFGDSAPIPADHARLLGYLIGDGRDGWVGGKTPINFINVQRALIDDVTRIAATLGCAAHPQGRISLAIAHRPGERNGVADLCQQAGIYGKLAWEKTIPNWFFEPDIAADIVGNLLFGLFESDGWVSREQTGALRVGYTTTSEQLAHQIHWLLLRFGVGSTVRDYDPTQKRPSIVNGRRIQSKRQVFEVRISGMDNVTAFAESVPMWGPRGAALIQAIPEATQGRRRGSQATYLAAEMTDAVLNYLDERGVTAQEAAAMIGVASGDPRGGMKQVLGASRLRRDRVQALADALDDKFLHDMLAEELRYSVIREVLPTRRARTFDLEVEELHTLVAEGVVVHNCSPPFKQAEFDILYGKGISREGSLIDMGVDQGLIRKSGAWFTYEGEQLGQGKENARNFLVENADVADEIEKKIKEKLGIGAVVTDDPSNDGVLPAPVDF

Cytochrome P450 2C9 = Cytochrome P450 2C9 (Homo sapiens, UniProt P11712)
Sequence of Cytochrome P450 2C9 (P11712 whole entry): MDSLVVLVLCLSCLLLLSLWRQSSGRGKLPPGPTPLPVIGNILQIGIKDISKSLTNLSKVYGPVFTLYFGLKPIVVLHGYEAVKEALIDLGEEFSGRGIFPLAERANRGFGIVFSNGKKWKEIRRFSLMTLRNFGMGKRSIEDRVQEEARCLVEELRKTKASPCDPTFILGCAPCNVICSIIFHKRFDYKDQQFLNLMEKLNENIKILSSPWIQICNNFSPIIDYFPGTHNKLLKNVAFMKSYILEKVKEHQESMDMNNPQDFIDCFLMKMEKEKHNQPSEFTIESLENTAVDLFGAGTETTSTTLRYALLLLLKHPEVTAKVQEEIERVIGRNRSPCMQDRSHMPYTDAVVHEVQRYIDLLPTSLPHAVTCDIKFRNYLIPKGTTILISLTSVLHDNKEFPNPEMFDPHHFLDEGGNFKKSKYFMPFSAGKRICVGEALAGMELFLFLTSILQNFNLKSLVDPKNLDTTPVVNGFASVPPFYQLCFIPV

Cytochrome P450 3A4 = Cytochrome P450 3A4 (Homo sapiens, UniProt P08684);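 note: CYP3A4 tested as one member of a cytochrome P450 panel screen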
Sequence of Cytochrome P450 3A4 (P08684 whole entry): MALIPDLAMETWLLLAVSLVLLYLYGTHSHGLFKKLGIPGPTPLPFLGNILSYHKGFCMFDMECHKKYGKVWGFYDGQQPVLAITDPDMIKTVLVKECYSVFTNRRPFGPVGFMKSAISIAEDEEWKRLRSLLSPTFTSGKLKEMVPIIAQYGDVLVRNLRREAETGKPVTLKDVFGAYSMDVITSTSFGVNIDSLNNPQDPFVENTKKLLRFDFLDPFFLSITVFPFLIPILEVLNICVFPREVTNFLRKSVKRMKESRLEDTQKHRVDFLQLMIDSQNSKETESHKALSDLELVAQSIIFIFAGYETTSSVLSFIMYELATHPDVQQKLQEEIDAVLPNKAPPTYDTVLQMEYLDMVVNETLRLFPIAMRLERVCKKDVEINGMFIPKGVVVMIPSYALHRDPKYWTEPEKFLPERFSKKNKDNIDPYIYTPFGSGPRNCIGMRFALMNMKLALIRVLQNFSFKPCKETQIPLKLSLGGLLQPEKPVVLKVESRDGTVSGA

Genome polyprotein = Genome polyprotein (dengue virus type 2, UniProt P29990); assay: flavivirus cap methylation enzyme inhibition – biochemical, confirmation dose response, primary screen (AID 588689); assay type: functional
Sequence of Genome polyprotein (P29990 2492-3391 limits assumed): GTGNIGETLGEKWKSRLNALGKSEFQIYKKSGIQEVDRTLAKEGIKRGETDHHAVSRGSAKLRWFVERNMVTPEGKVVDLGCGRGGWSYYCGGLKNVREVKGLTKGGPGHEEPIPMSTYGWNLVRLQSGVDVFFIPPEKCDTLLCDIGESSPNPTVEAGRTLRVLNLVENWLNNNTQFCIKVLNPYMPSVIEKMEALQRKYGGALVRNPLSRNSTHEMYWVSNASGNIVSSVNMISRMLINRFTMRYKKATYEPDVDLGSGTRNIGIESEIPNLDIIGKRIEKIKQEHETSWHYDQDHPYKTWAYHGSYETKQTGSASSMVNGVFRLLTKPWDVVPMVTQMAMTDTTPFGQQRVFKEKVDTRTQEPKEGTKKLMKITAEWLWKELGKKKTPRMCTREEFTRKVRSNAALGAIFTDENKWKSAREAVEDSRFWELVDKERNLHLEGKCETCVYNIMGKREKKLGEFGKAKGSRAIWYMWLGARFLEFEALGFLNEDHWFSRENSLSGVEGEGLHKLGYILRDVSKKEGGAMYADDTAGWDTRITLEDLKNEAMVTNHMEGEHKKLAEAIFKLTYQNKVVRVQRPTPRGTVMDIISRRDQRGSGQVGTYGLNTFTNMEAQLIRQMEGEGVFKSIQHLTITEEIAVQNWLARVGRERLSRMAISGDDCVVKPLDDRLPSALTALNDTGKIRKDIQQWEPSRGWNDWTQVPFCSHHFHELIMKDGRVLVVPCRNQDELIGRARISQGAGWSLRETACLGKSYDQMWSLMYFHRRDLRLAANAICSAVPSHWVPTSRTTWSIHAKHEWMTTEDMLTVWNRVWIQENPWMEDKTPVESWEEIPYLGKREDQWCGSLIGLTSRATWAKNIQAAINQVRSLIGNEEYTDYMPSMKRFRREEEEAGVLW

[2] = biological target: T3, RNA-binding protein pos-1 (Caenorhabditis elegans, UniProt G5EF15); assay: disruptors of C. elegans POS-1 RNA interaction – biochemical, fluorescence polarization, dose response (AID 1964);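 note: purified POS-1 fused to maltose binding protein made in E. coli; potency of compounds blocking POS-1 binding to fluorescent RNA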
T3 sequence (G5EF15 whole entry): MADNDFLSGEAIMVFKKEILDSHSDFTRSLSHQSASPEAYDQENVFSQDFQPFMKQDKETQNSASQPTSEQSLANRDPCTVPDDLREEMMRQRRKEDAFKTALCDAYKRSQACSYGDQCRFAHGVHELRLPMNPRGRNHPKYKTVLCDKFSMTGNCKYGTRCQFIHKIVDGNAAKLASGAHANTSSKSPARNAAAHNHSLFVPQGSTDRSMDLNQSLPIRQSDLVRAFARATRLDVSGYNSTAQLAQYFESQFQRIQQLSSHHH

[3] = biological target: T4, Zinc finger protein mex-5 (Caenorhabditis elegans, UniProt Q9XUB2); assay: potency of MEX-5 RNA-binding blockers – biochemical, C. elegans, fluorescence polarization, dose response (AID 1960)
T4 sequence (Q9XUB2 whole entry): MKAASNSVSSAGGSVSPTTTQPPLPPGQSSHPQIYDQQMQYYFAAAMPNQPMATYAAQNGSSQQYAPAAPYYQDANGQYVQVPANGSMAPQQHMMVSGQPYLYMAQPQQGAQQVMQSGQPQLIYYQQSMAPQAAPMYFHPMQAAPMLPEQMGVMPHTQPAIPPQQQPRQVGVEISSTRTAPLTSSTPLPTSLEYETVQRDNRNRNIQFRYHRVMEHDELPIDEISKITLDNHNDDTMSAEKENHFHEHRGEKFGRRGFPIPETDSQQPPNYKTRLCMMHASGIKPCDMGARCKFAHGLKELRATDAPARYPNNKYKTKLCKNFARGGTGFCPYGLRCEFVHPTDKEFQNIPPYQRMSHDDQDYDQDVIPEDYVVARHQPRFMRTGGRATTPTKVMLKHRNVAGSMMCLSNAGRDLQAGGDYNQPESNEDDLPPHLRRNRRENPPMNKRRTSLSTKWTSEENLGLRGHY

[4] = fluconazole-exposed Candida albicans growth modulators – fluorescence, retest, confirmation (AID 2467); assay type: functional, cell-based
[5] = NIH-3T3 fibroblast cytotoxicity, dose response, cytotoxicity control, cell-based, fluorescence, Alamar Blue, secondary assay (AID 2327); assay type: functional;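 note: NIH-3T3 mouse fibroblasts cultured with fluconazole at 8 µg/mL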
[6] = viability of uninfected HEp-2 cells – cell-based, HTS, cytotoxicity control for RSV inhibitor project, dose response (AID 2410); assay type: functional; conditions: human respiratory syncytial virus
Cytochrome P450 2D6 = Cytochrome P450 2D6 (Homo sapiens, UniProt P10635);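 note: CYP2D6 member of a cytochrome P450 panel assay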
Sequence of Cytochrome P450 2D6 (P10635 whole entry): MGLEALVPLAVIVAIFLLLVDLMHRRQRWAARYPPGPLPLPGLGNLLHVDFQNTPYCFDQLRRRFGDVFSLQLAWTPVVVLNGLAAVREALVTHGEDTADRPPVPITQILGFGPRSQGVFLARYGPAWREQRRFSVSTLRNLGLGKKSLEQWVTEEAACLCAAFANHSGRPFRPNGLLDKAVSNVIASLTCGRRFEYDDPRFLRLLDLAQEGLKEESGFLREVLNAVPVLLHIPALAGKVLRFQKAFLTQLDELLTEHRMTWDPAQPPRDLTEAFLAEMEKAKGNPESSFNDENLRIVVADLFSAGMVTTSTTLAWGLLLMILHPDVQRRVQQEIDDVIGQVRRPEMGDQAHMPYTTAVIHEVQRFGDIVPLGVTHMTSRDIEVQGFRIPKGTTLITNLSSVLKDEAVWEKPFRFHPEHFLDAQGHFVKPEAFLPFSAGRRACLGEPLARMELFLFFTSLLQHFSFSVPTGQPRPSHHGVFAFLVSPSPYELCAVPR

Cytochrome P450 1A2 = biological target: T5, Cytochrome P450 1A2 (Homo sapiens, UniProt P05177);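 note: PubChem cytochrome P450 panel assay, CYP1A2 panel member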
T5 sequence (P05177 whole entry): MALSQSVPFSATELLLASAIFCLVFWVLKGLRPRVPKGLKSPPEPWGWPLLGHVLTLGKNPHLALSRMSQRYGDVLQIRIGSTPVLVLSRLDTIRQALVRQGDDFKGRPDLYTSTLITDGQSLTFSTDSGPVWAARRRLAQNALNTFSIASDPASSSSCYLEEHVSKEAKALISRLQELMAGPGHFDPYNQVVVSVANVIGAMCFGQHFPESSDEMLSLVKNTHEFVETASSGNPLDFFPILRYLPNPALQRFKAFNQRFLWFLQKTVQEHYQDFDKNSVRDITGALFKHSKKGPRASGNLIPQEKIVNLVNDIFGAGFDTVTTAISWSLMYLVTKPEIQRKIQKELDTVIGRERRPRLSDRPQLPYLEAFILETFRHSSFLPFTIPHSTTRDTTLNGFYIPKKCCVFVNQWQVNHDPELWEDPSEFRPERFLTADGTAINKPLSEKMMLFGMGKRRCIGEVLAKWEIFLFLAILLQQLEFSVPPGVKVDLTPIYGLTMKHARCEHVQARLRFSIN

[7] = biological target: FAD-linked sulfhydryl oxidase ALR (Homo sapiens, UniProt P55789); assay: ALR-catalysed DTT oxidation blockers – biochemical, H2O2 detection, luminescence, cherry-pick, dose response (AID 493248)
Sequence of FAD-linked sulfhydryl oxidase ALR (P55789 whole entry): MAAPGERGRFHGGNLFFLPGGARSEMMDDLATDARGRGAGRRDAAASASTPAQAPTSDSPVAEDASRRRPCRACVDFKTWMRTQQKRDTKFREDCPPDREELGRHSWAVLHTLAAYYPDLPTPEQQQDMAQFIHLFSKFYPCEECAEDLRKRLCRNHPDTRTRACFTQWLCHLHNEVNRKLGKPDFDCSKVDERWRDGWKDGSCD

Structure (SMILES): CN(Cc1ccccc1)C(=O)c1nc2ccccn2c1CN1CCCC1c1nccs1 (stereo unspecified)
- AC50 (INS1): > 260 µM (inactive)

Structure (SMILES): CCOC(=O)c1nc(C)n(-c2ccc(Cl)cc2)n1
- AC50 [1]: > 380 µM (inactive)
- EC50 (Protein RecA): > 380 µM (inactive)

Structure (SMILES): Cc1cc(C2C(C#N)=C(N)Oc3[nH]nc(C)c32)c(C)s1 (stereo unspecified)
- AC50 [1]: 10.9 µM (active)
- AC50 (Cytochrome P450 2C9): 10 µM (inconclusive)
- AC50 (Cytochrome P450 3A4): 7.08 µM (inconclusive)
- EC50 (Protein RecA): 3.32 µM (active)

Structure (SMILES): O=S(=O)(O)c1cccc2cccc(Nc3ccccc3)c12
- IC50 (Genome polyprotein): > 100 µM (active)

Structure (SMILES): O=C1/C(=C/c2cccc(F)c2)SC(=S)N1NS(=O)(=O)c1ccccc1
- IC50 (Genome polyprotein): 30.6 µM (active)

Structure (SMILES): COc1cc(C(c2c(C)[nH][nH]c2=O)c2c(C)[nH][nH]c2=O)cc([N+](=O)[O-])c1O
- EC50 [2]: 7.63 µM (active)
- EC50 [3]: 4.74 µM (active)
- AC50 [1]: 0.42 µM (active)
- EC50 (Protein RecA): 0.248 µM (active)

Structure (SMILES): CC1=NN(c2ccc(Cl)cc2)C(=O)C1
- AC50 [1]: 2.74 µM (active)
- EC50 (Protein RecA): 2.67 µM (active)

Structure (SMILES): COC(=O)N/N=C/c1ccc(-c2cc(Cl)cc(Cl)c2)o1
- EC50 [4]: 5.04 µM (active)
- EC50 [5]: > 150 µM (inactive)
- CC50 [6]: > 50 µM (active)

Structure (SMILES): COc1ccccc1CN1CCCC2(CCN(C(=O)c3c(C)noc3C)CC2)C1
- AC50 (Cytochrome P450 2D6): 12.6 µM (inconclusive)
- AC50 (Cytochrome P450 3A4): 10 µM (inconclusive)

Structure (SMILES): CCc1ccc(C2C(C#N)=C(N)Oc3[nH]nc(CC(=O)OC)c32)cc1 (stereo unspecified)
- AC50 [1]: 13.8 µM (active)
- EC50 (Protein RecA): 8.36 µM (active)

Structure (SMILES): O=C(c1ccco1)N1CCN(c2ncnc3c(-c4ccccc4)nsc23)CC1
- EC50 [4]: 9.83 µM (active)
- EC50 [5]: 108 µM (active)

Structure (SMILES): CCn1c2ccccc2c2cc(/N=C3/SC(CC(=O)Nc4ccccc4)C(=O)N3C)ccc21 (stereo unspecified)
- AC50 (Cytochrome P450 2D6): 7.08 µM (inconclusive)
- AC50 (Cytochrome P450 1A2): 3.16 µM (inconclusive)

Structure (SMILES): O=C1NN(c2ccc(Cl)c(Cl)c2)C(=O)/C1=C/c1ccc(-c2ccccc2C(=O)O)o1
- AC50 [7]: 0.26 µM (active)
- EC50 [5]: > 160 µM (inactive)
- IC50 (Genome polyprotein): 7.41 µM (active)

Structure (SMILES): O=C(NCc1ccccc1Cl)c1ccc2c(=O)n(CCCN3CCCC3=O)c(=S)[nH]c2c1
- AC50 (Cytochrome P450 2D6): 22.4 µM (inconclusive)
- AC50 (Cytochrome P450 3A4): 15.8 µM (inconclusive)
